Values of other authors as cited in patent publication US6358940B1, “Modified 2-Alkoxyestradiol derivatives with prolonged pharmacological activity” (priority 1999, dated 2002).

Legend:
[1] = tested on: angiogenesis
[2] = tested on: neovascularization; details: in vivo
[3] = tested on: cancer cell cultures
[4] = tested on: human non-small cell lung cancer line
[5] = tested on: tubulin polymerization; details: antitubulin activity and cytotoxicity

| Compound | inhibitory effect on angiogenesis [1] | inhibition of neovascularization ([2]; mice) | signs of toxicity ([2]; mouse) | cytotoxicity [3] | apoptotic cell death ([4]; after drug treatment) | wild-type p53 levels ([4]; human non-small cell lung cancer line, with accumulation of p21WAF1/CIP1) | potency relative to 2-methoxyestradiol [5] |
| --- | --- | --- | --- | --- | --- | --- | --- |
| COc1cc2c(cc1O)CC[C@@H]1[C@@H]2CC[C@]2(C)[C@@H](O)CC[C@@H]12 [2-methoxyestradiol] | strong inhibitory effect on angiogenesis | potent inhibitor of neovascularization | No signs of toxicity | cytotoxic | Significant apoptotic cell death | increases wild-type p53 levels | – |
| CC=Cc1cc2c(cc1O)CCC1C2CCC2(C)C(O)CCC12 (stereo not drawn) [2-((E)-l-propenyl)-estradiol] | – | – | – | – | – | – | substantially more potent than 2-methoxyestradiol |
| CCOc1cc2c(cc1O)CC[C@@H]1[C@@H]2CC[C@]2(C)[C@@H](O)CC[C@@H]12 [2-Ethoxyestradiol] | – | – | – | – | – | – | substantially more potent than 2-methoxyestradiol |
